In test [1] the test system is S. aureus 33591 (MRSA). As to the kind of experiment: Kirby-Bauer disc diffusion antimicrobial susceptibility. It is filed as cell-based, Staphylococcus aureus. To be noted: 100 mM, carrier water; 18-24 hours for aerobes. In general terms: Agar diffusion results depend on both activity and mobility in agar.
Test [2] has as its system P. aeruginosa. Described as above. It is filed as cell-based, Pseudomonas aeruginosa. The note with it: 100 mM, carrier water; 18-24 hours for aerobes.
Test [3] has as its system K. pneumoniae. Described as above. It is filed as cell-based. To be noted: 100 mM, carrier water; 18-24 hours for aerobes.
For test [4], the system named is Legionella 43662. It is filed as cell-based.
Test [5] has as its system all bacteria tested. Nature of the test: In vitro antimicrobial susceptibility, whole panel. It is filed as cell-based.
Test [6] has as its system Pseudomonas aeruginosa ATCC9027. Nature of the test: Paper disc test with water or propylene glycol, Example 10.
Test [7] relates to E. coli, ATTC 8739 and ATCC 43895. Nature of the test: Kirby-Bauer disc diffusion antimicrobial susceptibility. It is filed as cell-based. The note with it: 100 mM, carrier water; 18-24 hours for aerobes.
In test [8] the test system is S. aureus 6538. The test is described as above. It is filed as cell-based. The note with it: 100 mM, carrier water; 18-24 hours for aerobes.
Test [9] deals with Staphylococcus aureus ATCC33591 (MRSA). As to the kind of experiment: Paper disc test with water or propylene glycol, Example 10.
The subject of test [10] is Aureobasidium pullulans, ATCC 15233. As to the kind of experiment: In vitro test of 2, 4, 6 Trihydroxybenzaldehyde against a fungi. To be noted: 100 mM. It is filed as cell-based.
Test [11] has as its system Staphylococcus epidermidis ATCC 51625 (MRSE). Nature of the test: In vitro antimicrobial test (FIG. 32). It is filed as cell-based.
Test [12] relates to S. pyogenes. As to the kind of experiment: Kirby-Bauer disc diffusion antimicrobial susceptibility. It is filed as cell-based. To be noted: 100 mM, carrier water.
Test [13] relates to C. perfringens. It is filed as cell-based. To be noted: 100 mM, carrier water.
Test [14] has as its system S. mutans. As to the kind of experiment: Kirby-Bauer disc diffusion antimicrobial susceptibility. It is filed as cell-based. To be noted: 100 mM, carrier water.
For test [15], the system named is C difficile. The description is as above. To be noted: 100 mM, carrier water; 48 hours for anaerobes. It is filed as cell-based.

SMILES strings stand for the structures. “And” between values parts separate entries of the source, which are not always exact repeats. Equal entries are not always repeated.

One may read the zone of inhibition as the extent of the growth-free halo in a diffusion test. Regarding `O=Cc1c(O)cc(O)cc1O` [2, 4, 6 Trihydroxybenzaldehyde, 2, 4, 6 trihydroxybenzaldehyde], the “effectiveness against S. aureus 33591 (MRSA)” value in test [1] is given as “effective”. For the same compound, in test [2], the “effectiveness against P. aeruginosa” value is “effective”. The “effectiveness against K. pneumoniae” value in [3] was “effective”. Besides, in test [4], the “effectiveness against Legionella 43662” value is “effective”. Besides, the “antibiotic properties (summary)” value in [5] is reported as “broad spectrum antibiotic”. Besides, the “inhibition of growth under the sample” value in test [6] (PPG), in test [6] (Water), in [9] (PPG) and in [9] (Water) was “I” throughout. In addition, the zone of inhibition in [6] (PPG) was 3 mm; in test [6] (Water, listed as 246 THBA), 2 mm and 3 mm; in test [9] (PPG), 12 mm; in test [9] (Water, listed as 246 THBA), 14 mm and 15 mm. The “effectiveness against E. coli” value in test [7] is “effective”. The “effectiveness against S. aureus 6538” value in test [8] is reported as “effective”. For the same compound, the “effectiveness against A. pullulans, a fungi” value in test [10] is “effective”. For the same compound, the “effectiveness against MRSE ATCC 51625” value in test [11] is recorded as “effective”.

As to `CC1(C)S[C@@H]2[C@H](NC(=O)[C@H](N)c3ccc(O)cc3)C(=O)N2[C@H]1C(=O)O` [Amoxicillin, amoxicillin, reference compound], in test [2], the “effectiveness against P. aeruginosa” value is listed as “no effect”.

With `Oc1cc(O)c2cc(O)c(-c3ccc(O)c(O)c3)[o+]c2c1.[Cl-]` [Cyanidin CI, cyanidin chloride], the “effectiveness against S. aureus 33591 (MRSA)” value in test [1] was “effective”. In addition, the “effectiveness against S. pyogenes” value in test [12] was “effective”. Moreover, in test [13], the “effectiveness against C. perfringens (growth inhibition)” value is reported as “effective”. In test [5], the “antibiotic properties (summary)” value is “limited antibiotic properties”. The “effectiveness against S. aureus 6538” value in [8] is given as “effective”. Moreover, in test [14], the “effectiveness against S. mutans” value was “effective”. For the same compound, the “effectiveness against C. difficile (growth inhibition)” value in test [15] is “effective”.

Regarding `O=C(O)CNC(=O)c1ccccc1` [hippuric acid], the “antibiotic properties (summary)” value in test [5] is “little activity”.

Take `COc1cc(C(=O)O)ccc1O` [vanillic acid]: the “antibiotic properties (summary)” value in test [5] is recorded as “little activity”.
